According to US5610155A, “Condensed diazepinones, processes for preparing them and agents containing these compounds for treating diseases of the central nervous system and for promoting cerebral blood circulation” (Dr. Karl Thomae GmbH, priority 1995, dated 1997):
“Also recorded” adds a separate entry of the source.

Tests used:
M3 (Submandibular gland) = molecular target: T1, M3 (Submandibular gland) (Rattus norvegicus, UniProt P08483); assay: Receptor binding test in vitro, M3 (submandibular/salivary gland), [3H]NMS; set-up: species or system rat (male Wistar); conditions: 0.3 nM [3H]NMS, 40 min, ambient temperature, pH 7.5
T1 construct: The cerebral cortex, heart and salivary glands were removed, washed and homogenised; from tissue; host or cells: salivary (submandibular) glands of male Wistar rats (Chbb: THOM)

M1 (Cortex) = molecular target: T2, M1 (Cortex) (Rattus norvegicus, UniProt P08482); assay: Receptor binding test in vitro, M1 (cerebral cortex), [3H]pirenzepine; set-up: species or system rat (male Wistar); conditions: 1 nM [3H]pirenzepine, 90 min, ambient temperature, pH 7.5
T2 construct: The cerebral cortex, heart and salivary glands were removed, washed and homogenised; from tissue; host or cells: cerebral cortex of male Wistar rats (Chbb: THOM)
T2 sequence (P08482 1-460): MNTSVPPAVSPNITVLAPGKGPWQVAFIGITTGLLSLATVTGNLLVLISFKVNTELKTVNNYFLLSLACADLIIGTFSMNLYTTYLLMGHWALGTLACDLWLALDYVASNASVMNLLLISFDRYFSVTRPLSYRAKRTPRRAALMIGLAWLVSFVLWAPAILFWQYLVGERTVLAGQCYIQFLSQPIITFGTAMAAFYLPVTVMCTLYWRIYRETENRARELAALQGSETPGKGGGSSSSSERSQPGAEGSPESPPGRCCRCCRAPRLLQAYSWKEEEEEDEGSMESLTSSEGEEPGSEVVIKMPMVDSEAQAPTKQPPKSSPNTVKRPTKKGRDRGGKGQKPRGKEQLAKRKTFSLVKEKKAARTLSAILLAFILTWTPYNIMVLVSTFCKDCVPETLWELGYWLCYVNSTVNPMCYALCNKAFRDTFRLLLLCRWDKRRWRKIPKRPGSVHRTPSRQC

M2 (Heart) = molecular target: T3, M2 (Heart) (Rattus norvegicus, UniProt P10980); assay: Receptor binding test in vitro, M2 (heart), [3H]NMS; set-up: species or system rat (male Wistar); conditions: 0.3 nM [3H]NMS, 40 min, ambient temperature, pH 7.5
T3 construct: The cerebral cortex, heart and salivary glands were removed, washed and homogenised; from tissue; host or cells: heart of male Wistar rats (Chbb: THOM)
T3 sequence (P10980 1-466): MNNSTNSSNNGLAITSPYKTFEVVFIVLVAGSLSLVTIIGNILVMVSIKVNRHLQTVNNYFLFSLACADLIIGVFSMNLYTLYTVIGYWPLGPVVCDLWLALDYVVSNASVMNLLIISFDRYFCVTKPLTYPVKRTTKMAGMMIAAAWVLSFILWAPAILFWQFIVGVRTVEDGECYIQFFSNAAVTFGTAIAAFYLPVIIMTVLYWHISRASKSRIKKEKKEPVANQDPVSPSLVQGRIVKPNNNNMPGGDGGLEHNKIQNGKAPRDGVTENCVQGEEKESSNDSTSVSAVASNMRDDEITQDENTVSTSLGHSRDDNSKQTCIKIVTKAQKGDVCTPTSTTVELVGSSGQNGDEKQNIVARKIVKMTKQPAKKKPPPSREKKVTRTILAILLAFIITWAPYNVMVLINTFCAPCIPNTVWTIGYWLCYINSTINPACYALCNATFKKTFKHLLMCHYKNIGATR

[1] = test system: arecoline-induced increase in blood pressure; assay: Investigation for central activity: arecoline test, CNS-penetration in vivo; set-up: species or system rat; conditions: for ED50: Rattus norvegicus, iv, read-out: ED50, reduction in the arecoline-induced increase in blood pressure
Experimental: Principle: Arecoline has both a central and a peripherally active component. […] Cerebroavailable antimuscarinics block this central effect. Method: Male rats weighing 300 g are anaesthetised i.p. with urethane (1.2 g/kg). The trachea is […], the animals are respirated with an air/oxygen mixture (80 breaths per minute). The blood pressure is recorded after canulation of the carotid artery by means of a pressure recorder (Bell and Howell Type 4-327-I). The test substances are administered through the jugular vein ([…]). […] The arecoline is administered (in doses of 0.3 mg/kg) at 15 minute intervals. After 2 comparison values, the test substance is injected in increasing doses 5 minutes before the next administration of arecoline. The results obtained were compared with the average starting values and determined as the percentage inhibition.

[2] = test system: 24 months old learning-impaired rats; assay: Effect on the memory in the Morris water maze (aged rats); format: in vivo, rat; conditions: 24 months old rats, 0.2 mg/kg s.c., 4 days, FIG. 1, vs physiological saline
Experimental: The tests were carried out using the water maze described by R. G. M. Morris in Learn Motive 12: 239-249 (1981) using the test method described therein.
On the first day, rats which were 24 months old and therefore learning-impaired (n=7 per group) were given 0.2 mg/kg of compound D by subcutaneous route whilst another group of these animals were given physiological saline solution (s.c.).

[3] = literature: Hunter and Roberts 1988; Hunter et al. 1986; Sutherland et al. 1982; Wishaw 1985; cited from earlier work

T1 sequence (P08483 whole entry): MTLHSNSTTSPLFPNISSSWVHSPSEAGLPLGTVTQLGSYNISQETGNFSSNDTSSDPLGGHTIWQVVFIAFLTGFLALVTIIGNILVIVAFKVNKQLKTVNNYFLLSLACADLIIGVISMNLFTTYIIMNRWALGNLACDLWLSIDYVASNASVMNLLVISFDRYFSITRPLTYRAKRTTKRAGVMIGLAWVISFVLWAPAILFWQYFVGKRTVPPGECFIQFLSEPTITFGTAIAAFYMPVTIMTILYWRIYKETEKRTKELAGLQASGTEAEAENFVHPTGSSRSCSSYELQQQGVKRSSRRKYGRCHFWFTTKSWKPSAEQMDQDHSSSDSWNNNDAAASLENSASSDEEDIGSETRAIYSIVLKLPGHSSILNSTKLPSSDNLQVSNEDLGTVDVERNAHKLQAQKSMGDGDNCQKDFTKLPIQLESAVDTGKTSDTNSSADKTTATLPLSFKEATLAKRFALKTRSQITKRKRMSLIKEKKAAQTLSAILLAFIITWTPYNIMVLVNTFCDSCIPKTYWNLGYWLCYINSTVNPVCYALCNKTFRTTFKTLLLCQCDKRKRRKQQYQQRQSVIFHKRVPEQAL

| Ki (M3 (Submandibular gland)) [nM] | Ki (M1 (Cortex)) [nM] | Ki (M2 (Heart)) [nM] | Compound | ED50 [1] [mg/kg] | Effect on arecoline-mediated central effects / increase in blood pressure (in words) ([1]; rat, i.v.) | Memory performance in the Morris water maze (in words) [2] | Learning ability and memory performance (in words) [3] |
| --- | --- | --- | --- | --- | --- | --- | --- |
| 151 | 20 | – | CCN(CC)CCCCC1CCN(CC(=O)N2c3ccccc3C(=O)Nc3cccnc32)CC1 [I] | – | – | – | – |
| 1820 | 794 | 120 | O=C1Nc2cccnc2N(C(=O)CCC#CCN2CCCCC2)c2ccccc21 [J] | – | – | – | – |
| 13 | 13 | 2 | O=C1Nc2cccnc2N(C(=O)N2CCCC(CCCN3CCCCC3)C2)c2ccccc21 (stereo not shown) [M] | – | – | – | – |
| 6 | 7.9 | 2 | Cc1scc2c1N(C(=O)CN1CCC(CCCN3CCCCC3)CC1)c1ccccc1NC2=O [N] | – | – | – | – |
| 30 | 35 | 7.6 | Cc1scc2c1N(C(=O)CCC#CCN1CCCCCC1)c1ccccc1NC2=O [P] | – | – | – | – |
| 50 | 50 | 20 | CCN(CC)CC1COCCN1CCCC(=O)N1c2ccccc2C(=O)Nc2cccnc21 (stereo not shown) [Q] | – | – | – | – |
| 30 | 7.1 | 3 | CN(CCC1CCCN1C)CC(=O)N1c2ccccc2C(=O)Nc2cccnc21 (stereo not shown) [R] | – | – | – | – |
| 25 | 16 | 3 | CN(CCC1CCCCCN1C)CC(=O)N1c2ccccc2C(=O)Nc2cccnc21 (stereo not shown) [S] | – | – | – | – |
| 750 | 500 | 25 | CCN(CCCC1CCN(CC(=O)N2c3ccccc3C(=O)Nc3cccnc32)CC1)C(=O)C(C)(C)CC [Substance A, 5,11-dihydro-11-[[4-[3-[(2,2-dimethyl-1-oxobutyl]-ethylamino]-propyl]-1-piperidinyl]acetyl]-6H-pyrido[2,3-b][1,4]benzodiazepin-6-one] | 4.5 | – | – | – |
| 300 | 150 | 15 | CCCC(C)(C)C(=O)N(CC)CCCC1CCN(CC(=O)N2c3ccccc3C(=O)Nc3cccnc32)CC1 [Substance B] | 1.3 | – | – | – |
| 875 | 500 | 38 | CCCC(C)(C)C(=O)N(CC)CCCCC1CCN(CC(=O)N2c3ccccc3C(=O)Nc3cccnc32)CC1 [Substance C, 5,11-dihydro-11-[[4-[4-[(2,2-dimethyl-1-oxopentyl)-ethylamino]butyl]-1-piperidinyl]acetyl]-6H -pyrido [2,3-b][1,4]benzodiazepin-6-one] | 2 | – | – | – |
| 916 | 866 | 25 | CCCC(C)(C)C(=O)N(CC)CCCC1CCN(CC(=O)N2c3ccc(Cl)cc3C(=O)Nc3cccnc32)CC1 [Substance D, 5,11-dihydro-8-chloro-11-[[4-[3-[(2,2-dimethyl-1-oxopentyl)-ethylamino]propyl]-1-piperidinyl]-acetyl]-6H-pyrido[2,3-b][1,4]benzodiazepin-6-one] | 5 | – | improved memory performance; also recorded: reached the same level as the control groups of young rats | – |
| 1500 | 1000 | 100 | CCN(CCCC1CCN(CC(=O)N2c3ccc(C)cc3C(=O)Nc3cccnc32)CC1)C(=O)C(C)(C)C [Substance E, 5,11-dihydro-8-methyl-11-[[4-[3-[(2,2-dimethyl-1-oxopropyl)-ethylamino]propyl]-1-piperidinyl]acetyl]-6H-pyrido[2,3-b][1,4]benzodiazepin-6-one] | 2.8 | – | – | – |
| 1500 | 900 | 65 | CCN(CCCC1CCN(CC(=O)N2c3ccccc3C(=O)Nc3cccnc32)CC1)C(=O)C(C)(C)C [Substance F, 5,11-Dihydro-11-[[4-[3-[(2,2-dimethyl-1-oxopropyl)ethylamino]propyl]-1-piperidinyl]acetyl]-6H-pyrido[2,3-b][1,4]benzodiazepin-6-one] | 6.5 | – | – | – |
| 750 | 600 | 25 | CCN(CCCC1CCN(CC(=O)N2c3ccc(C)cc3C(=O)Nc3cccnc32)CC1)C(=O)C(C)(C)CC [Substance G, 5,11-dihydro-8-methyl-11-[[4-[3-[(2,2-dimethyl-1oxobutyl)ethylamino]propyl]-1-piperidinyl]acetyl]-6H-pyrido[2,3-b][1,4]benzodiazepin-6-one] | 5.1 | – | – | – |
| 40 | 10 | 5 | O=C1Nc2cccnc2N(C(=O)CCCCCN2CCCCC2)c2ccccc21 [Substance O, 5,11-dihydro-11-[1-oxo-6-(1-piperidinyl)-1-hexyl]-6H-pyrido[2,3-b][1,4]benzodiazepin-10-one, reference compound] | – | – | – | – |
| – | – | – | CN1CCN(CC(=O)N2c3ccccc3C(=O)Nc3cccnc32)CC1 [pirenzepine] | – | – | – | a deterioration in learning ability and memory performance was observed |

| Compound | Ki (M3 (Submandibular gland)) [nM] | Ki (M1 (Cortex)) [nM] | Ki (M2 (Heart)) [nM] | ED50 [1] [mg/kg] | Effect on arecoline-mediated central effects / increase in blood pressure (in words) ([1]; rat, i.v.) | Memory performance in the Morris water maze (in words) [2] | Learning ability and memory performance (in words) [3] |
| --- | --- | --- | --- | --- | --- | --- | --- |
| CCN(CC)CC1CCCCN1CC(=O)N1c2ccccc2C(=O)Nc2cccnc21 (stereo not shown) [H] | 2000 | – | – | – | – | – | – |
| CCCN(CCC)CC1CCCCN1CCNC(=O)N1c2ccccc2C(=O)Nc2cccnc21 (stereo not shown) [L] | – | 30 | 7.9 | > 10 | no effect on the increase in blood pressure caused by arecoline | – | – |
